The record followed here is patent publication US20050288347A1, “Certain triazole-based compounds, compositions, and uses thereof” (priority 2004, published 2005).

Entries after “also recorded” stand apart in the source; their conditions may differ.

The first experiment has as its system protein kinase. Nature of the experiment: HTS ATP-utilizing enzyme assay, off-chip mobility-shift format (Caliper HTS 250). The experiment is classed as biochemical, human.
Details: not given
An outline of the steps: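 Kinase reactions ran 2.5 h at 20 to 22 °C with test compound at 10 μM, in a HEPES pH 7.5 master buffer containing Triton X-100 and BSA. Peptide substrate and phosphorylated product separated by mobility shift; inhibition normalized to DMSO (0%) and EDTA (100%) controls, with three-sigma thresholds for hits.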
Turning to `COc1ccccc1-n1c(SCCCCc2ccccc2)nnc1-c1ccc(N)nc1`, the “protein kinase against which the compound exhibits inhibitory activity (Table 3)” value is “MAPKAPK-3”.

The same experiment, now with this note: kinase(s) for which the compound exhibits protein kinase inhibitory activity; test compound 10 μM; active = greater than three-sigma from the mean activity of inactive compounds.
`CCOc1ccc(NCc2nnc(SCC(=O)Nc3cc(C(F)(F)F)ccc3Cl)n2-c2ccc(OC)cc2)cc1`: the Kinase entry is “PAK2 and AURORA-A and FYN”.

With `COc1ccc(-n2c(SC(C)C(=O)O)nnc2-c2ccc(O)cc2)cc1` (centres unmarked), the Kinase result is “GSK3-β; also recorded: MAPKAPK-2”.

As for `CCn1c(CNc2cccc(Cl)c2)nnc1SCC(=O)O`, the Kinase result is “CDK2-cyclinA”.

As to `Cc1cccc(C)c1NCc1nnc(SCC(=O)Nc2ccccc2-c2ccccc2)n1C`, the Kinase result is given as “LCK”.

`Cn1c(SCC(=O)N2CCc3ccccc32)nnc1-c1ccc(N)cc1`: the Kinase entry is on record as “MAPKAPK-2”.

As to `COc1ccccc1-n1c(SCC#N)nnc1-c1ccccc1O`, the Kinase entry is given as “AURORA-A”.

Take `Cc1ccc(C)c(-n2c(SCC(N)=O)nnc2-c2ccc(O)cc2)c1`: the Kinase result is reported as “GSK3-β; also recorded: GSK3-α; also recorded: CDK2-cyclinE”.

`O=C(CSc1nnc(CSc2nc3ccccc3s2)n1-c1ccccc1)NCCN1CCOCC1`: the Kinase entry was “CSK”.

As for `O=C(CSc1nnc(-c2ccc(O)cc2)n1Cc1ccco1)Nc1nc2c(s1)CCCC2`, the Kinase result was “GSK3-β; also recorded: GSK3-α”.

For the compound `CSCCc1nnc(SCC#N)[nH]1` [2-(5-(2-(methylthio)ethyl)-4H-1,2,4-triazol-3-ylthio)acetonitrile], the Kinase result is “GSK3-α”.

In the case of `COc1ccc(NCc2nnc(SCC(=O)Nc3cccc(Cl)c3)n2-c2ccc(C)cc2)cc1`, the Kinase result was “PDGFRR-α and FYN and AURORA-A”.

Take `CCn1c(SCC(=O)c2cc(OC)ccc2OC)nnc1C(C)C`: the Kinase entry was “PDGFRR-α and FLT-3 and FYN”.

As to `CCOC(=O)c1ccc(NC(=O)CSc2nnc(COc3ccc(OC)cc3)n2CC)cc1`, the Kinase entry was “FYN”.

For the compound `Cc1ccc(NCc2nnc(SCC(N)=O)n2CC2CCCO2)cc1Cl` (centres unmarked), the Kinase entry is reported as “AURORA-A”.

For `Cc1cccc(-c2nnc(SCC(=O)c3ccc4c(c3)OCCO4)[nH]2)c1`, the Kinase result is “FLT-3; also recorded: GSK3-α; also recorded: AURORA-A”.

On to `CCn1c(CNc2ccccc2Cl)nnc1SC(C)C(=O)Nc1ccc([N+](=O)[O-])cc1` (centres unmarked), for which the Kinase entry was “PDGFRR-α”.

As for `COCCn1c(SCC(=O)Nc2ccc(F)cc2)nnc1-c1ccncc1`, the Kinase entry is “FYN”.

As to `COc1ccc(NCc2nnc(SCC(=O)Nc3ccc(C)cc3Br)n2C)cc1`, the Kinase entry is “FYN and PDGFRR-α and FLT-3”.

In the case of `COCCn1c(SCC(=O)Nc2ccc3c(c2)OCO3)nnc1-c1cc2ccccc2cc1O`, the Kinase result is given as “AURORA-A”.

As for `CCOC(=O)CSc1nnc(COc2ccc3ccccc3c2)n1C`, the Kinase entry is recorded as “MAPKAPK-2”.

As for `Cc1csc(NC(=O)CSc2nnc(-c3cccnc3)n2C)n1`, the Kinase entry was “PAK2”.

In the case of `O=[N+]([O-])c1ccc(OCc2nnc(S)n2-c2ccccc2)cc1` [5-((4-nitrophenoxy)methyl)-4-phenyl-4H-1,2,4-triazole-3-thiol], the Kinase entry is recorded as “FLT-3; also recorded: PDGFRR-α”.

For `COCCn1c(SCC(=O)Nc2ccccc2C(=O)OC)nnc1-c1ccncc1`, the Kinase entry is “GSK3-β; also recorded: GSK3-α”.

For `O=C(CSc1nnc(-c2ccc(O)cc2)n1-c1ccccc1)NCc1ccco1`, the Kinase entry is listed as “GSK3-β; also recorded: GSK3-α”.

On to `COc1ccc(-n2c(SC(C)C(=O)Nc3ccc(C)cc3)nnc2-c2ccc(O)cc2)cc1` (centres unmarked), for which the Kinase result was “GSK3-α”.

Take `CCn1c(SCC(=O)N2CCCc3ccccc32)nnc1-c1cc2ccccc2cc1O`: the Kinase entry is “CDK2-cyclinA; also recorded: AURORA-A; also recorded: DAPK1”.

Take `O=C(O)CSc1nnc(CNc2cccc(C(F)(F)F)c2)n1Cc1ccco1`: the Kinase result is “SRC and AURORA-A”.

As for `Cn1c(S)nnc1COc1cccc2ccccc12` [4-methyl-5-((naphthalen-1-yloxy)methyl)-4H-1,2,4-triazole-3-thiol], the Kinase result is recorded as “GSK3-β; also recorded: GSK3-α”.

On to `COCCn1c(SCC(=O)Nc2ccccc2F)nnc1-c1cc2ccccc2cc1O`, for which the Kinase result is listed as “AURORA-A”.

For the compound `Cc1ccc([N+](=O)[O-])cc1NC(=O)CSc1nnc(-c2ccc([N+](=O)[O-])cc2)n1C`, the Kinase result is recorded as “PDGFRR-α”.

As to `CCOc1ccc(NCc2nnc(SCC(=O)Nc3cc(C)on3)n2-c2ccccc2OC)cc1`, the Kinase entry was “PDGFRR-α and FYN”.

In the case of `CCn1c(SCC(=O)O)nnc1-c1ccc(S(=O)(=O)N2CCOCC2)cc1`, the Kinase result is reported as “CDK1”.

In the case of `NC(=O)CSc1nnc(COc2cccc3cccnc23)n1-c1ccccc1`, the Kinase entry is “MAPKAPK-2”.

As for `CCn1c(SCC(=O)OC)nnc1-c1ccc([N+](=O)[O-])cc1` [methyl 2-(4-ethyl-5-(4-nitrophenyl)-4H-1,2,4-triazol-3-ylthio)acetate], the Kinase entry is “PDGFRR-α and FYN”.

On to `COc1ccc(OCc2nnc(SCC(=O)c3ccccc3)n2C)cc1`, for which the Kinase entry is recorded as “PAK2”.

Take `COc1ccc(NCc2nnc(SCC(=O)Nc3sc4c(c3C#N)CCCC4)n2C)cc1`: the Kinase entry was “DYRK2; also recorded: CDK2-cyclinE”.

Consider `COc1ccc(-n2c(SC(C)C(=O)Nc3ccccc3)nnc2-c2ccc(O)cc2)cc1` (centres unmarked), for which the Kinase result was “GSK3-α and AKT1”.

With `Cn1c(S)nnc1-c1ccc(O)cc1` [4-(5-mercapto-4-methyl-4H-1,2,4-triazol-3-yl)phenol], the Kinase result is “CDK5 and CDK2-cyclinA and CDK2-cyclinE”.

Turning to `CC(Sc1nnc(CNc2ccc(Cl)cc2)n1Cc1ccccc1)C(=O)O` (centres unmarked), the Kinase entry was “DAPK1”.

Consider `COc1ccc(-c2nnc(SCC(=O)Nc3cccc(NC(=O)C4CCCO4)c3)n2-c2ccccc2)cc1` (centres unmarked), for which the Kinase result was “PRAK and CHEK2 and PKA”.

On to `Cc1nnc(SCC(=O)c2ccc3c(c2)OCCO3)[nH]1`, for which the Kinase result was “GSK3-α; also recorded: GSK3-β; also recorded: DYRK2”.

Regarding `O=C(O)CSc1nnc(-c2ccc(Cl)c(Cl)c2)[nH]1` [2-(5-(3,4-dichlorophenyl)-4H-1,2,4-triazol-3-ylthio)acetic acid], the Kinase entry is given as “GSK3-α; also recorded: GSK3-B β; also recorded: AURORA-A”.

For the compound `Cn1c(S)nnc1C1CCCCC1` [5-cyclohexyl-4-methyl-4H-1,2,4-triazole-3-thiol], the Kinase result is given as “AKT1”.

The experiment is the same for the next values; noted with them: test compound 10 μM; active = activity greater than three-sigma from the mean of the predominately inactive population for that enzyme.
Turning to `Oc1ccc(-c2nnc(SCCN3CCCCC3)n2Cc2ccco2)cc1`, the “protein kinase against which the compound exhibits inhibitory activity (Table 3)” value was “GSK3-α”.

Regarding `FC(F)(F)c1cccc(-c2nnc(SCC3CCCO3)[nH]2)c1` (centres unmarked), the “protein kinase against which the compound exhibits inhibitory activity (Table 3)” value is recorded as “AURORA-A”.

As to `FC(F)Oc1ccccc1CSc1nnc(-c2cc(-c3ccccc3)nc3ccccc23)n1Cc1ccco1`, the “protein kinase against which the compound exhibits inhibitory activity (Table 3)” value is given as “c-TAK1”.

For the compound `CCn1c(SCc2cc(=O)[nH]c3ccccc23)nnc1-c1cc2ccccc2cc1O`, the “protein kinase against which the compound exhibits inhibitory activity (Table 3)” value is reported as “AURORA-A”.

For `Clc1cccc(NCc2nnc(SCc3ccc(Cl)cc3Cl)n2-c2ccccc2)c1`, the “protein kinase against which the compound exhibits inhibitory activity (Table 3)” value is on record as “LCK”.

In the case of `Cc1nnc(SCc2cccc(I)c2)[nH]1` [3-(3-iodobenzylthio)-5-methyl-4H-1,2,4-triazole], the “protein kinase against which the compound exhibits inhibitory activity (Table 3)” value is on record as “AURORA-A; also recorded: GSK3-α; also recorded: DYRK2”.

With `CCOC(=O)CCCSc1nnc(-c2ccc3[nH]c(C)c(C)c3c2)n1CC`, the “protein kinase against which the compound exhibits inhibitory activity (Table 3)” value is “FLT-3”.

`O=C1c2ccccc2C(=O)N1CCSc1nnc(-c2ccc([N+](=O)[O-])cc2)[nH]1` [2-(2-(5-(4-nitrophenyl)-4H-1,2,4-triazol-3-ylthio)ethyl)isoindoline-1,3-dione]: the “protein kinase against which the compound exhibits inhibitory activity (Table 3)” value is listed as “GSK3-α”.

For `Cc1ccc(-n2c(SCc3ccccc3)nnc2-c2cccnc2)cc1` [3-(5-(benzylthio)-4-p-tolyl-4H-1,2,4-triazol-3-yl)pyridine], the “protein kinase against which the compound exhibits inhibitory activity (Table 3)” value is listed as “AURORA-A”.

Regarding `N#Cc1ccccc1CSc1nnc(-c2cccnc2)[nH]1` [2-((5-(pyridin-3-yl)-4H-1,2,4-triazol-3-ylthio)methyl)benzonitrile], the “protein kinase against which the compound exhibits inhibitory activity (Table 3)” value is recorded as “AURORA-A; also recorded: GSK3-α; also recorded: CHEK2”.

In the case of `Cc1cc(C)nc(SCc2nnc(SCCC(=O)O)n2-c2ccccc2)n1`, the “protein kinase against which the compound exhibits inhibitory activity (Table 3)” value is recorded as “CHEK2”.

Take `COc1ccc(-n2c(COc3ccccc3OC)nnc2SCCC(=O)O)cc1`: the “protein kinase against which the compound exhibits inhibitory activity (Table 3)” value is listed as “CDK1”.

In the case of `Cc1nnc(SCc2ccccc2)n1CCc1ccccc1` [3-(benzylthio)-5-methyl-4-phenethyl-4H-1,2,4-triazole], the “protein kinase against which the compound exhibits inhibitory activity (Table 3)” value is “GSK3-β; also recorded: GSK3-α; also recorded: c-TAK1”.

As for `COCCCn1c(SCc2ccccc2Cl)nnc1-c1ccc(C(C)(C)C)cc1`, the “protein kinase against which the compound exhibits inhibitory activity (Table 3)” value is “CDK1”.

Regarding `Cc1nn(-c2ccccc2)c2sc(-c3nnc(SCCN4CCCCC4)n3C)cc12`, the “protein kinase against which the compound exhibits inhibitory activity (Table 3)” value is “GSK3-α; also recorded: CHEK2”.

Consider `O=C(CSc1nnc(-c2cccnc2)n1Cc1ccccc1)NNC(=O)c1ccc(Br)cc1`, for which the “protein kinase against which the compound exhibits inhibitory activity (Table 3)” value is “PDGFRR-α; also recorded: AURORA-A”.

As to `COc1ccc(-c2nnc(SCC3CCCCC3)[nH]2)cc1` [3-(cyclohexylmethylthio)-5-(4-methoxyphenyl)-4H-1,2,4-triazole], the “protein kinase against which the compound exhibits inhibitory activity (Table 3)” value is given as “AURORA-A; also recorded: c-TAK1”.

Regarding `CCOc1ccc(NCc2nnc(SCCN3CCOCC3)n2-c2ccccc2)cc1`, the “protein kinase against which the compound exhibits inhibitory activity (Table 3)” value was “FYN”.

Take `OCC(O)CSc1nnc(CCc2ccccc2)[nH]1` (centres unmarked): the “protein kinase against which the compound exhibits inhibitory activity (Table 3)” value is on record as “GSK3-α”.

For the compound `O=C(O)CCSc1nnc(-c2ccc(O)cc2)n1-c1cccc(Cl)c1`, the “protein kinase against which the compound exhibits inhibitory activity (Table 3)” value is recorded as “GSK3-β; also recorded: GSK3-α”.

For `O=[N+]([O-])c1ccc(-c2nnc(SCC(O)CO)[nH]2)cc1` (centres unmarked) [3-(5-(4-nitrophenyl)-4H-1,2,4-triazol-3-ylthio)propane-1,2-diol], the “protein kinase against which the compound exhibits inhibitory activity (Table 3)” value is “AURORA-A; also recorded: FLT-3; also recorded: DYRK2”.
